According to patent US20040072770A1, “Methods for specifically inhibiting histone deacetylase-7 and 8” (priority 2002, published 2004):

What was measured:
[1] = system: breast cancer cells MDAmb231; assay: MTT assay, MDAmb231; type: cell-based; settings: Homo sapiens, MDA-MB-231; 72 hours
Experimental: (§1) Effects of HDAC isotype-specific small molecule inhibitors on growth inhibition of various human cancer cells (from ATCC) in vitro were determined by MTT assays. Briefly, cells seeded in 96-well plates were incubated for 72 hours at 37° C. in a 5% CO2 incubator. MTT (Sigma) was added at a final concentration of 0.5 mg/ml and incubated with the cells for 4 hours before an equal volume of solubilization buffer (50% N,N-dimethylformamide, 20% SDS, pH 4.7) was added onto cultured cells. After overnight incubation, solubilized dye was quantified by colorimetric reading at […] using a reference at 630 nM. OD values were converted to cell numbers according to a standard growth curve of the relevant cell line. The concentration which reduces cell numbers to 50% of those of DMSO-treated cells is determined as MTT IC50. In Table 4, IC50s of several HDAC7 or HDAC8 inhibitors in MTT assays in various human cancer cell lines were listed. They include colon cancer cells HCT116 and SW48, lung cancer cells A549 and H446, breast cancer cells MCF-7 and MDAmb231, a prostate cancer cell line Du145 and a bladder cancer cell line T24.

colon cancer cells SW48 = assay: MTT assay, SW48; type: cell-based; settings: Homo sapiens, 72 hours, read-out: MTT IC50 SW 48
Experimental: as §1

HDAC-6 = target: T1, HDAC-6 (Homo sapiens, UniProt Q9UBN7); assay: Enzyme inhibitory activity, HD6; type: biochemical; settings: read-out: IC50 HD 6
T1 sequence (Q9UBN7 1-1215): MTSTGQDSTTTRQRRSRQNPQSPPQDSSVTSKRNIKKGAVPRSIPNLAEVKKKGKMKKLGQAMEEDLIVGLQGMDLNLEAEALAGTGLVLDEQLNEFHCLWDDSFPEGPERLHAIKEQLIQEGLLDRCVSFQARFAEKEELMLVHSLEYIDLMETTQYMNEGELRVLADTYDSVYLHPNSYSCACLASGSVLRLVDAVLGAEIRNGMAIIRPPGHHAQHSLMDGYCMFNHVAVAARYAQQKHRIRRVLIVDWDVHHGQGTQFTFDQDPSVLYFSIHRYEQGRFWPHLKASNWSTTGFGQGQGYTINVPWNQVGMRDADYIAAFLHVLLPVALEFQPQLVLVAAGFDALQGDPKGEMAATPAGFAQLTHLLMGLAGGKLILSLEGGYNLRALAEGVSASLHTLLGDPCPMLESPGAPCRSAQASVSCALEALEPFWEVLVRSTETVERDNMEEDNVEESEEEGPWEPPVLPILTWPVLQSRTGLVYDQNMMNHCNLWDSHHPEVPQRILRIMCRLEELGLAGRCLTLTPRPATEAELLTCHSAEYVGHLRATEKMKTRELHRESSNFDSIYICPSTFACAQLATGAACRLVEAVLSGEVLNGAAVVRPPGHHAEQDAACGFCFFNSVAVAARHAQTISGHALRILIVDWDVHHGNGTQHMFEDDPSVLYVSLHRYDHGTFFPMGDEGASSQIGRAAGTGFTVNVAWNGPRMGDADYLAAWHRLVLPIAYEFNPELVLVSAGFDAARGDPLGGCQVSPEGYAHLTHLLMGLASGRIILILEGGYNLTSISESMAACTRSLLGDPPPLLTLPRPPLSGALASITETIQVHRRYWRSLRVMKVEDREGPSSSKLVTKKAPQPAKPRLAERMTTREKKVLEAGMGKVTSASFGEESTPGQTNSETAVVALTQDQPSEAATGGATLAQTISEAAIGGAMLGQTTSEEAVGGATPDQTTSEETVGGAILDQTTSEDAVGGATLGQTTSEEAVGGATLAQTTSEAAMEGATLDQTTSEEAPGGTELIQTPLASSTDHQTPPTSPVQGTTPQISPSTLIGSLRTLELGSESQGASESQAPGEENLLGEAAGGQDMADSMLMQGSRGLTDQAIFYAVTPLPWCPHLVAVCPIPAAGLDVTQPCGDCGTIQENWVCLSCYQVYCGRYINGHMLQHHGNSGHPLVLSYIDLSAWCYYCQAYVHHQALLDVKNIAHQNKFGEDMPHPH

[2] = system: prostate cancer cell line Du145; assay: MTT assay, Du145; type: cell-based; settings: Homo sapiens, DU-145; 72 hours
Experimental: as §1

[3] = system: breast cancer cells MCF-7; assay: MTT assay, MCF-7; type: cell-based; settings: Homo sapiens, MCF7; 72 hours
Experimental: as §1

[4] = system: pancreatic carcinoma Panc-1 tumors; assay: Tumor growth in a mouse model, Panc-1; type: in vivo; settings: BALB/c nude mice, vs vehicle-treated
Experimental: (§2) Female BALB/c nude mice are obtained from Charles River Laboratories (Charles River, N.Y.) and used at age 8-10 weeks. Human tumor cells (2×10^6, colon carcinoma cells HCT116 or SW48, lung carcinoma cells A549, pancreatic carcinoma Panc-1, ovarian carcinoma cells ES2, or prostate carcinoma cells Du145) are injected subcutaneously in the animal's flank and allowed to form solid tumors. Tumor fragments are serially passaged a minimum of three times, then approximately 30 mg tumor fragments are implanted subcutaneously through a small surgical incision under general anaesthesia. Small molecule inhibitor administration by intraperotineal or oral administration was initiated when the tumors reached a volume of 100 mm^3. For intraperotineal administration, small molecule inhibitors of HDAC-7, HDAC-8 or both, or in combination with small molecule inhibitors of HDAC-1 (20-60 mg/kg body weight/day) are dissolved in 100% DMSO and administered daily by injection. For oral administration, small molecule inhibitors of HDAC (60 mg/kg body weight) are dissolved in saline acidified with 0.2 N HCl. Tumor volumes are monitored twice weekly up to 20 days. Each experimental group contains at least 6-8 animals. Percentage inhibition is calculated using volume of tumor from vehicle-treated mice as controls. […]

[5] = system: colon carcinoma cells SW48 tumors; assay: Tumor growth in a mouse model, SW48; type: in vivo; settings: (6,0,O): oral; BALB/c nude mice; vs vehicle-treated
Experimental: as §2

[6] = system: prostate carcinoma cells Du145 tumors; assay: Tumor growth in a mouse model, Du145; type: in vivo; settings: (60,I): 60 mg/kg body weight/day, intraperitoneal; BALB/c nude mice; vs vehicle-treated
Experimental: as §2

[7] = system: lung carcinoma cells A549 tumors; assay: Tumor growth in a mouse model, A549; type: in vivo; settings: BALB/c nude mice, vs vehicle-treated
Experimental: as §2

IC50 [1] | IC50 (colon cancer cells SW48) | IC50 (HDAC-6) | IC50 [2] | IC50 [3] | Structure (SMILES) | % of Inhibition of Tumor Growth in Vivo PANC-1 ([4]; (60,O): 60 mg/kg body weight, oral) | % of Inhibition of Tumor Growth in Vivo SW 48 [5] | % of Inhibition of Tumor Growth in Vivo DU 145 [6] | % of Inhibition of Tumor Growth in Vivo A 549 ([7]; (5,0,O): oral) | % of Inhibition of Tumor Growth in Vivo PANC-1 ([4]; (3,0,I): intraperitoneal) | % of Inhibition of Tumor Growth in Vivo A 549 ([7]; (30,I): 30 mg/kg body weight/day, intraperitoneal)
2000 nM | 2000 nM | > 50000 nM | 2000 nM | 3000 nM | COc1ccc(NCc2ccc(C(=O)Nc3ccccc3N)cc2)cc1OC [Compound 17, N-(2-Aminophenyl)-4-[(3,4-dimethoxyphenylamino)-methyl]-benzamide] | 78(60,O) % | 68(6,0,O) % | >50(60,I) % | 67(5,0,O) % |  | 
500 nM | 800 nM | > 50000 nM | 500 nM | 700 nM | COc1ccc(-c2ccnc(NCc3ccc(C(=O)Nc4ccccc4N)cc3)n2)cc1OC [Compound 21, N-(2-Amino-phenyl)-4-{[4-(3,4-dimethoxy-phenyl)-pyrimidin-2-ylamino]-methyl}-benzamide] |  |  |  |  | >50(3,0,I) % | >50(30,I) %
2000 nM | 10000 nM | > 50000 nM | 2000 nM | 6000 nM | Cc1ccc(S(=O)(=O)Nc2ccc(/C=C/C(=O)Nc3ccccc3N)cc2)cc1 [Compound 5, N-(2-Aminophenyl)-3-[4-(4-methylbenzenesulfonylamino)-phenyl]-acrylamide] |  |  |  |  |  | 

Structure (SMILES) | IC50 [1] | IC50 (colon cancer cells SW48) | IC50 (HDAC-6) | IC50 [2] | IC50 [3] | % of Inhibition of Tumor Growth in Vivo PANC-1 ([4]; (60,O): 60 mg/kg body weight, oral) | % of Inhibition of Tumor Growth in Vivo SW 48 [5] | % of Inhibition of Tumor Growth in Vivo DU 145 [6] | % of Inhibition of Tumor Growth in Vivo A 549 ([7]; (5,0,O): oral) | % of Inhibition of Tumor Growth in Vivo PANC-1 ([4]; (3,0,I): intraperitoneal) | % of Inhibition of Tumor Growth in Vivo A 549 ([7]; (30,I): 30 mg/kg body weight/day, intraperitoneal)
Nc1ccccc1NC(=O)c1ccc(CSc2nc3ccccc3[nH]2)cc1 [Compound 16, N-(2-Amino-phenyl)-4-(1H-benzimidazol-2-ylsulfanylmethyl)-benzamide] | 1000 nM | 2000 nM | > 50000 nM | 700 nM | 3000 nM |  |  |  |  |  | 
